Data taken from ChEMBL document CHEMBL3714719, “Regulating agent of GPR34 receptor function” (2010).

Target: Probable G-protein coupled receptor 34 (Homo sapiens, UniProt Q9UPC5)
Assay: Antagonist activity against human lung GPR34 expressed in CHO cells co-expressing Galpha116 assessed as inhibition of lysophosphatidyl serine-induced increase in intracellular calcium level pre-incubated before lysophosphatidyl serine addition and measured after 180 secs by Fluo 3-AM dye based fluorescent assay
Type: functional, cell-based

Chain of Probable G-protein coupled receptor 34 (Q9UPC5 whole entry): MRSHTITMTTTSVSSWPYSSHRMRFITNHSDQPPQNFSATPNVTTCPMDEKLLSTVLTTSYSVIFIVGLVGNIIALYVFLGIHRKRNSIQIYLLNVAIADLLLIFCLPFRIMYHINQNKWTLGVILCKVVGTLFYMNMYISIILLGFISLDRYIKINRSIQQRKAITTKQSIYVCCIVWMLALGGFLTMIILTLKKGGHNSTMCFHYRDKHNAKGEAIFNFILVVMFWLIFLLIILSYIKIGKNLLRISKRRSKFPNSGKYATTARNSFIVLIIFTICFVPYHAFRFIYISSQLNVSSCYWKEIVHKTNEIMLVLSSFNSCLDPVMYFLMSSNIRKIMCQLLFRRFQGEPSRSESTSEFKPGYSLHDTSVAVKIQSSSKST

Row | IC50 [nM] | SMILES
1 | ≤ 1000 | O=C(NC(Cc1ccc(OCc2cccc(F)c2)cc1)C(=O)O)c1cn2cc(-c3ccc(Cl)cc3)ccc2n1 (centres undefined)
2 | ≤ 1000 | O=C(Cc1ccc(OCc2ccsc2)cc1)NC1(C(=O)O)Cc2ccc(-c3ccc(Cl)cc3)cc2C1 (centres undefined)
3 | ≤ 1000 | Cc1c(C(=O)N[C@@H](Cc2ccc(OCc3ccccc3)cc2)C(=O)O)oc2cc(-c3ccc(Cl)cc3)ccc12
4 | ≤ 1000 | O=C(N[C@@H](Cc1ccc(OCc2ccsc2)cc1)C(=O)O)c1cn2cc(-c3ccc(Cl)cc3)ccc2n1
5 | ≤ 1000 | Cc1c(C(=O)N[C@@H](Cc2ccc(OCc3ccoc3)cc2)C(=O)O)oc2cc(-c3ccc(Cl)cc3)ccc12
6 | ≤ 1000 | O=C(Cc1ccc(Oc2nc3ccccc3s2)cc1)NC1(C(=O)O)Cc2ccc(-c3ccc(Cl)cc3)cc2C1 (centres undefined)
7 | ≤ 1000 | O=C(Cc1ccc(OCc2ccc(F)cc2)cc1)NC1(C(=O)O)Cc2ccc(-c3ccccc3Cl)cc2C1 (centres undefined)
8 | ≤ 1000 | O=C(NC(Cc1ccc(OCc2ccc(F)cc2)cc1)C(=O)O)c1nc2cc(-c3ccc(Cl)cc3)ccc2[nH]1 (centres undefined)
9 | ≤ 1000 | O=C(Cc1ccc(OCc2ccc(F)cc2)cc1)NC1(C(=O)O)Cc2ccc(-c3ccc(Cl)cc3)cc2C1 (centres undefined)
10 | ≤ 1000 | Cc1c(C(=O)N[C@@H](Cc2ccc(OCc3ccsc3)cc2)C(=O)O)oc2cc(-c3ccc(Cl)cc3)ccc12
11 | ≤ 1000 | O=C(NC(Cc1ccc(OCc2ccccc2)cc1)c1nnn[nH]1)c1cn2nc(-c3ccc(Cl)cc3)ccc2n1 (centres undefined)
12 | ≤ 1000 | O=C(N[C@@H](Cc1ccc(OCc2ccccc2)cc1)C(=O)O)c1cn2ccc(-c3ccc(Cl)cc3)cc2n1
13 | ≤ 1000 | O=C(Cc1ccc(OCc2ccc(F)cc2)cc1)NC1(C(=O)O)Cc2ccc(-c3ccc(Cl)s3)cc2C1 (centres undefined)
14 | ≤ 1000 | Nc1c(C(=O)NC(Cc2ccc(OCc3ccccc3)cc2)C(=O)O)oc2ccc(-c3ccc(Cl)cc3)cc12 (centres undefined)
15 | ≤ 1000 | Nc1cccc(COc2ccc(CC(=O)NC3(C(=O)O)Cc4ccc(-c5ccc(Cl)cc5)cc4C3)cc2)c1 (centres undefined)
16 | ≤ 1000 | O=C(Cc1ccc(Oc2ccccc2)cc1)NC1(C(=O)O)Cc2ccc(-c3ccc(Cl)cc3)cc2C1 (centres undefined)
17 | ≤ 1000 | O=C(NC(Cc1ccc(OCc2ccccc2F)cc1)C(=O)O)c1cn2cc(-c3ccc(Cl)cc3)ccc2n1 (centres undefined)
18 | ≤ 1000 | O=C(Cc1ccc(OCc2ccccc2)cc1)NC1(C(=O)O)Cc2ccc(-c3ccc(Cl)cc3)cc2C1 (centres undefined)
19 | ≤ 1000 | Cc1ccc(COc2ccc(CC(NC(=O)c3cc4ccc(-c5ccc(Cl)cc5)cc4o3)C(=O)O)cc2)cc1 (centres undefined)
20 | ≤ 1000 | O=C(O)CN(Cc1ccc(OCc2ccc(F)cc2)cc1)C(=O)c1cn2cc(-c3ccc(Cl)cc3)ccc2n1
21 | ≤ 1000 | O=C(NC(Cc1ccc(OCc2ccc(F)cc2)cc1)C(=O)O)c1cn2ccc(C#Cc3ccccc3)cc2n1 (centres undefined)
22 | ≤ 1000 | O=C(Cc1ccc(OCc2ccc(F)cc2)cc1)NC1(C(=O)O)Cc2ccc(-c3cccc(Cl)c3)cc2C1 (centres undefined)
23 | ≤ 1000 | Cc1c(C(=O)N[C@H](C(=O)O)c2ccc(OCc3ccccc3)cc2)oc2cc(-c3ccc(Cl)cc3)ccc12
24 | ≤ 1000 | O=C(O)C1(NS(=O)(=O)Cc2ccc(F)cc2)Cc2ccc(-c3ccc(Cl)cc3)cc2C1 (centres undefined)
25 | ≤ 1000 | O=C(Cc1ccc(OC2Cc3ccccc3C2)cc1)NC1(C(=O)O)Cc2ccc(-c3ccc(Cl)cc3)cc2C1 (centres undefined)
26 | ≤ 1000 | O=C(NC(Cc1ccc(OCc2ccccc2)cc1)C(=O)O)c1cn2cc(CCc3ccccc3)ccc2n1 (centres undefined)
27 | ≤ 1000 | O=C(NC(Cc1ccc(OCc2ccc(F)cc2)cc1)C(=O)O)c1cn2cc(-c3ccc(Cl)cc3)ccc2n1 (centres undefined)
28 | ≤ 1000 | O=C(NC(Cc1ccc(OCc2ccccc2)cc1)c1nnn[nH]1)c1cn2cc(-c3ccc(Cl)cc3)ccc2n1 (centres undefined)
29 | ≤ 1000 | Nc1ccccc1COc1ccc(CC(=O)NC2(C(=O)O)Cc3ccc(-c4ccc(Cl)cc4)cc3C2)cc1 (centres undefined)
